One data set deals with SKRC52 xenograft tumors. Here is the method: SKRC52 xenograft tumors were implanted into balb/c nu/nu mice (Charles River) as described above. […] 5 doses of 4 nmol 7a,b, 8a,b or 7 doses of 70 nmol 9a,b each in PBS pH 7.4 (150 μL) containing 5% DMSO were given on 5 or 7 consecutive days and one group was treated with vehicle (5% DMSO in PBS pH 7.4). In the case of 7-9b an equimolar amount of AAZ was added to the injection solution to control for a possible antitumor activity of CAIX inhibitors. Sorafenib and sunitnib were administered at a standard dose of 30 mg/kg as described previously.^[5] Animals were weighed and tumor sizes measured daily and the tumor volume calculated according to the formula (long side)×(short side)^2×0.5. […] Prism 6 (GraphPad Software) was used for data analysis (regular two-way ANOVA with the Bonferroni test).

Data set [1] concerns CAIX expressing SKRC52 cells. Nature of the data set: In vitro cytotoxicity assay (MTS). Type of data set: cell-based, human. As to the method:
SKRC52 or A549 cells were seeded in 96-well plates in their appropriate culture medium (100 μL) at a density of 5000 cells per well and allowed to grow for 24 h. The medium was replaced with medium containing different concentrations of test substance (100 μL, 300 nM-15 pM in 1:3 dilution steps) and plates were either:
(a) incubated for 72 hours in the presence of the toxic substance, or
(b) incubated for 1 h under standard culture conditions, followed by removal of the medium containing the toxic substance, gently washing the cells fresh medium once and adding new medium (100 μL) and incubating for 72 h under culture conditions.
MTS cell viability dye (20 μL, Promega) was added, the plates were incubated for 1 h under culture conditions and the absorbance at 490 nm measured on a Spectra Max Paradigm multimode plate reader (Molecular Devices). Experiments were performed in triplicate and average cell viability calculated as measured background corrected absorbance divided by the absorbance of untreated control wells. EC50 values were determined by fitting data to the four-parameter logistic equation.

Data set [2] addresses T1, recombinant carbonic anhydrase IX (Homo sapiens, UniProt Q16790).
T1 construct: Recombinant CAIX was expressed as described previously; made in house
In words: biochemical. Type of data set: binding. As to the method:
The FP was measured on a Spectra Max Paradigm multimode plate reader (Molecular Devices). Experiments were performed in triplicate and data analyzed as described by Wang and co-workers.^[4]

In data set [3] the target is T1, recombinant carbonic anhydrase IX. Nature of the data set: Determination of ligand KD by fluorescence polarization. In kind it is binding. Conditions: for Kd: 5 nM labeled ligand, 1 h room temperature, read-out: KD for fluorophore-linker-ligand complexes. Here is the method:
Fluorescently labeled ligands (2 mg) were dissolved in DMSO (100 μL) and diluted 1:2000 into PBS pH 7.4 to determine the stock's concentration by absorbance measurement at 495 nm (ε495=72,000 M^−1 cm^−1). Recombinant CAIX was expressed as described previously^[3], dialyzed against assay buffer (50 mM tris(hydroxymethyl)aminomethane [TIRS] pH 7.4 containing 1 mM ZnSO4) at 4° C. overnight and the protein concentration determined by absorbance measurement at 280 nm (ε280=35,075 M^−1 cm^−1).
In a black 384-well plate in assay buffer (30 μL) fluorescently labeled ligands (5 nM from appropriately diluted DMSO stocks, final DMSO content adjusted to 0.001%) were incubated with increasing concentrations of recombinant carbonic anhydrase IX (4.6 μM to 140 pM in steps of 1:2) for 1 h at room temperature. The fluorescence polarization (FP) was measured on a Spectra Max Paradigm multimode plate reader (Molecular Devices). Experiments were performed in triplicate, mean FP values divided by the top-plateau signal and the fractional FP value fit to equation (2) using KaleidaGraph 4.0 (Synergy Software). FP=([P]0+[L]0+KD)−√{square root over (([P]0+[L]0+KD)^2−4[P]0[L]0)} (2)
Where FP is the fractional fluorescence polarization, [P]0 the total protein concentration, [L]0 the total concentration of the fluorescently labeled ligand and KD the dissociation constant in nM.
On the technique in general: Fluorescence polarisation rises when a labelled molecule tumbles more slowly, as on binding a larger partner.

Data set [4] deals with subcutaneous SKRC52 tumors. Conditions: 3 nmol intravenous, 1-12 h.
Method: SKRC52 cells were grown to 80% confluence and detached with Trypsin-EDTA 0.05% (Invitrogen). Cells were washed with PBS pH 7.4 once, counted and resuspended in PBS to a final concentration of 6.7×10^7 cells mL^−1. Athymic balb/c nu/nu mice, 8-10 weeks of age (Charles River) were anesthetized with isofluorane and aliquots of 1×10^7 cells (150 μL of suspension) injected subcutaneously into their lower back.
Food and water was given ad libitum during that period.
Mice were subsequently sacrificed by cervical dislocation.
Data set [5] has as its system CAIX-expressing SKRC52 xenografts. The following applies: mouse, in vivo.
The mark [6] stands for this setting: Condition (b): 1 h exposure, wash, then 72 h, concentrations up to 300 nM.
Setting [7] is: Homo sapiens, SK-RC-52, Condition (a): incubated 72 hours in the presence of the toxic substance.
Where [8] appears, read: Homo sapiens, SK-RC-52, Condition (b): 1 h exposure, wash, then 72 h, concentrations up to 300 nM.

Regarding `CNC(=O)c1cc(Oc2ccc(NC(=O)Nc3ccc(Cl)c(C(F)(F)F)c3)cc2)ccn1` [sorafenib, reference compound], the “antitumor effect of standard drugs” value with SKRC52 xenograft tumors (standard dose of 30 mg/kg) is “neither sorafenib nor sunitinib, which represent the most commonly used chemotherapeutic agents for the treatment of kidney cancer, exhibited any detectable antitumor effect”. Take `COc1cc2[nH]cc(C(=O)N3C[C@@H](CCl)c4c3cc(OC(=O)OCCSSC[C@H](NC(=O)[C@H](CC(=O)O)NC(=O)[C@H](CCCNC(=N)N)NC(=O)[C@H](CC(=O)O)NC(=O)CCCCn3cc(CCCC(=O)O)nn3)C(=O)O)c3ccccc43)c2cc1OCCN(C)C` [Compound 7b, Untargeted CBI Carbonate]: the EC50 (as a rule, the concentration giving half of the maximal effect) in data set [1] (setting [6]) amounted to 1.4 ± 0.3 nM. In addition, in data set [2], the “binding affinity for recombinant CAIX in vitro (in words)” value (shortened to “binding affinity for recombinant CAIX”) is “do not exhibit strong binding”. Besides, in data set [2] (unlabeled drug-linker conjugate, read-out: KD (competitive fluorescence polarization)), the Kd (commonly the free concentration of one partner at which half of the binding sites on the other are occupied at equilibrium, for simple one-to-one binding) was over 1000 nM.

Compound `COc1cc2cc(c1Cl)N(C)C(=O)C[C@H](OC(=O)[C@H](C)N(C)C(=O)CCS)[C@]1(C)O[C@H]1[C@H](C)[C@@H]1C[C@@](O)(NC(=O)O1)[C@H](OC)/C=C/C=C(\C)C2` [DM1, reference compound] came in with an EC50 in data set [1] (setting [6]) of 45 ± 10 nM. Consider `NS(=O)(=O)c1nnc(NC(=O)CCC(=O)NCCOCCOCCNC(=S)Nc2ccc(-c3c4ccc(=O)cc-4oc4cc(O)ccc34)c(C(=O)O)c2)s1` [Compound 1a, N1-(2-(2-(2-aminoethoxy)ethoxy)ethyl)-N4-(5-sulfamoyl-1,3,4-thiadiazol-2-yl)succinamide fluorescein conjugate], for which the dissociation constant Kd in data set [3] came to 12.6 ± 1 nM. Turning to `COc1cc2[nH]c(C(=O)N3C[C@@H](CCl)c4c3cc(O)c3ccccc43)cc2cc1OCCN(C)C` [Compound 14, Seco CBI Drug], the figures for the EC50 in data set [1] (setting [7]) and in data set [1] (setting [8]) were 0.055 ± 0.005 nM and 1 ± 0.1 nM, respectively. Turning to `CC(C)(C)OC(=O)NCCOCCOCCNC(=S)Nc1ccc(-c2c3ccc(=O)cc-3oc3cc(O)ccc23)c(C(=O)O)c1` [Compound 6a, Tert-butyl (2-(2-(2-aminoethoxy)ethoxy)ethyl)carbamate fluorescein conjugate], in data set [3], the “binding to CAIX (in words)” value is given as “did not bind to the CAIX”.

Regarding `CC(C)[C@@H](C(=O)NCCOCCOCCNC(=O)CCCCc1ccc(C2=C(/C=C/C3=[N+](CCCCS(=O)(=O)O)c4ccc(S(=O)(=O)O)cc4C3(C)C)CCC/C2=C\C=C2\N(CCCCS(=O)(=O)O)c3ccc(S(=O)(=O)[O-])cc3C2(C)C)cc1)n1cc(-c2ccc(S(N)(=O)=O)cc2)nn1` [Compound 2c, (S)—N-(2-(2-(2-aminoethoxy)ethoxy)ethyl)-3-methyl-2-(4-(4-sulfamoylphenyl)-1H-1,2,3-triazol-1-yl)butanamide IRDye750 conjugate], the “tumor targeting by near infrared imaging” value in data set [4] is “the tumor was barely visible”. Take `COc1cc2cc(c1Cl)N(C)C(=O)C[C@@H](OC(=O)[C@@H](C)NC(=O)CCSC)[C@]1(C)O[C@@H]1[C@@H](C)[C@@H]1C[C@](O)(NC(=O)O1)[C@@H](OC)/C=C/C=C(\C)C2` [DM1SMe, DM1-SMe, reference compound]: the EC50 was 0.5 nM in data set [1] (setting [7]) and 5.8 ± 1.1 nM in data set [1] (setting [8]). Turning to `CC1(C)C(/C=C/C2=C(c3ccc(CCCCC(=O)NCCOCCOCCNC(=O)[C@H](CCCCNC(=O)[C@H](CC(=O)O)NC(=O)[C@H](CC(=O)O)NC(=O)CCCCn4cc(CCCC(=O)Nc5nnc(S(N)(=O)=O)s5)nn4)NC(=O)[C@H](CC(=O)O)NC(=O)[C@H](CC(=O)O)NC(=O)CCCCn4cc(CCCC(=O)Nc5nnc(S(N)(=O)=O)s5)nn4)cc3)C(=C/C=C3/N(CCCCS(=O)(=O)O)c4ccc(S(=O)(=O)O)cc4C3(C)C)/CCC2)=[N+](CCCCS(=O)(=O)[O-])c2ccc(S(=O)(=O)O)cc21` [Compound B4], in data set [5], the “accumulation in the tumour (imaging)” value is “strongly accumulated in the tumour”; the “integrated fluorescence signal in the tumour, of its initial value” turned out to be 40%; the “residence on the tumour” value was “significantly longer residence on the tumour”; the “tumour:lung ratio” value was “higher tumour:lung ratio than B3”. `CC(C)[C@@H](C(=O)NCCOCCOCCNC(=S)Nc1ccc(-c2c3ccc(=O)cc-3oc3cc(O)ccc23)c(C(=O)O)c1)n1cc(-c2ccc(S(N)(=O)=O)cc2)nn1` [Compound 2a, (S)—N-(2-(2-(2-aminoethoxy)ethoxy)ethyl)-3-methyl-2-(4-(4-sulfamoylphenyl)-1H-1,2,3-triazol-1-yl)butanamide fluorescein conjugate]: in data set [3], the Kd came to 18.1 ± 1.3 nM. Same read-out and setting: for `NS(=O)(=O)c1ccc(Nc2nc(Cl)nc(NCCOCCOCCNC(=S)Nc3ccc(-c4c5ccc(=O)cc-5oc5cc(O)ccc45)c(C(=O)O)c3)n2)cc1` [Compound 3a, 4-((4-((2-(2-(2-aminoethoxy)ethoxy)ethyl)amino)-6-chloro-1,3,5-triazin-2-yl)amino)benzenesulfonamide fluorescein conjugate] the value was 46.8 ± 1.2 nM; for `NS(=O)(=O)c1ccc(C(=O)NCCOCCOCCNC(=S)Nc2ccc(-c3c4ccc(=O)cc-4oc4cc(O)ccc34)c(C(=O)O)c2)cc1` [Compound 5a, N-(2-(2-(2-aminoethoxy)ethoxy)ethyl)-4-sulfamoylbenzamide fluorescein conjugate], 218 ± 9 nM. In the case of `COc1cc2[nH]cc(C(=O)N3C[C@@H](CCl)c4c3cc(OC(=O)N(C)CCSSC[C@H](NC(=O)[C@H](CC(=O)O)NC(=O)[C@H](CCCNC(=N)N)NC(=O)[C@H](CC(=O)O)NC(=O)CCCCn3cc(CCCC(=O)O)nn3)C(=O)O)c3ccccc43)c2cc1OCCN(C)C` [Compound 8b, Untargeted CBI Carbamate], the “binding affinity for recombinant CAIX” value in data set [2] is “do not exhibit strong binding”. For the same compound, the tumor growth effect entry in the data set on SKRC52 xenograft tumors (5 doses of 4 nmol on 5 consecutive days, 7a vs vehicle p<0.0001, vs 7b plus AAZ p<0.05) is “did not lead to any retardation in tumor growth”. With `COc1cc2cc(c1Cl)N(C)C(=O)C[C@H](OC(=O)[C@H](C)N(C)C(=O)CCSSC[C@H](NC(=O)[C@H](CC(=O)O)NC(=O)[C@H](CCCNC(=N)N)NC(=O)[C@H](CC(=O)O)NC(=O)CCCCn1cc(CCCC(=O)O)nn1)C(=O)O)[C@@]1(C)O[C@H]1[C@H](C)[C@@H]1C[C@@](O)(NC(=O)O1)[C@H](OC)/C=C/C=C(\C)C2` [Compound 9b, Untargeted DM1 Conjugate], in data set [2], the “binding affinity for recombinant CAIX” value is “do not exhibit strong binding”.
